Reference: US11673889B2, “Substituted imidazo[4,5-c][1,8]naphthyridines as phosphodiesterase inhibitors” (Nanjing Zhengxiang Pharmaceuticals Co., Ltd., priority 2019, dated 2023)

How the values were obtained:
human soluble ENPP1 [1] = molecular target: T1, human soluble ENPP1 (Homo sapiens, UniProt P22413); experiment: ENPP1 activity assay using p-Nitrophenyl-5′-TMP as a substrate; assay type: biochemical
T1 construct: 20 ng of human soluble ENPP1
T1 sequence (P22413 103-925 limits assumed): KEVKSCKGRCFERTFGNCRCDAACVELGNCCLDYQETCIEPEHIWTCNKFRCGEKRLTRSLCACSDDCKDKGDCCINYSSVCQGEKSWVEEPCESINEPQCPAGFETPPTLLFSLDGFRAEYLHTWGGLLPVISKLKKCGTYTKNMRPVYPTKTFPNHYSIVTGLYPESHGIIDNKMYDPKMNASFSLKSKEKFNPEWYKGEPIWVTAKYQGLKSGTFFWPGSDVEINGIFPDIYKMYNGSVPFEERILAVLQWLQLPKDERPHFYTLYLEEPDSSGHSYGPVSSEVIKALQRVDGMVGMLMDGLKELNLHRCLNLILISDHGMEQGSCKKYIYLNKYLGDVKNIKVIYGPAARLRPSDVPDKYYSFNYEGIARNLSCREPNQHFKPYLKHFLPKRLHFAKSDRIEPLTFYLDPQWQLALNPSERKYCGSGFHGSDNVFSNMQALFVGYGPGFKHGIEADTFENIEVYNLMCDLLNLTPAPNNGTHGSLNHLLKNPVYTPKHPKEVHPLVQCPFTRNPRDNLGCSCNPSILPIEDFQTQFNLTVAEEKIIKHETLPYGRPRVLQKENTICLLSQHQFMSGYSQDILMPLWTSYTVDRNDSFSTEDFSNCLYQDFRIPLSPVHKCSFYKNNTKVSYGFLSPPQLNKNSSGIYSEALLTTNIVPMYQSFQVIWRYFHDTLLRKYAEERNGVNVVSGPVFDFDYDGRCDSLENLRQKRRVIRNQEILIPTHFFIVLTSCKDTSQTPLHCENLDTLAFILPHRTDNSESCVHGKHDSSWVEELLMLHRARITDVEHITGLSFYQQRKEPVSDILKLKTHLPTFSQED
Description: ENPP1 is a transmembrane glycoprotein that hydrolyzes nucleotides and nucleotide derivatives with the formation of nucleotide-5′-monophosphates. ENPP1 hydrolyzes artificial phosphoric acid ester thymidine 5′monophosphate p-nitrophenyl ester (TMP-pNP) to nucleotide-5′-monophosphate and p-nitrophenol, which is a chromogenic product.
Load into a well with 20 ng of human soluble ENPP1 in 50 μL and incubate at room temperature with 25 μL inhibitor solution (4× Final Concentration) for 30 mins. Then, add 25 μL 2 mM TMP solution (2× Final Concentration) into the well, Incubate at RT for 1 hour.
(§1) The percent inhibition at each compound is calculated as follows: % inhibition=(ODMAX−ODCOMPOUND)/(ODMAX−ODMIN)*100. (MAX: absence of ENPP1 inhibitors control, MIN: blank control.)
The IC50 values for percent inhibition versus compound concentration were determined by fitting the inhibition curves using a four-parameter variable slope model in GraphPad Prism® 8.

human soluble ENPP1 [2] = molecular target: T1, human soluble ENPP1; experiment: ENPP1 activity assay using p-Nitrophenyl-5′-AMP as a substrate; assay type: biochemical
Description: AMP-pNP can be used as substrate of ENPP-1. Its hydrolysis products were nucleotide-5′-monophosphate and p-nitrophcnol, which is also a chromogenic product. The amount of p-nitrophenol product formed is measured using its absorbance at 405 nm, which is directly proportional to enzyme activity.
Load into a well with […] of human soluble ENPP1 in 50 μL and incubate at room temperature with 25 μL inhibitor solution (4× Final Concentration) for 30 mins prior adding 25 μL 3 mM AMP solution (2× Final Concentration) into the well, Incubate at RT for 1 hour. The amounts of released p-nitrophenolate were measured by reading OD value at 405 nm.
as §1
(§2) The IC50 values for percent inhibition versus compound concentration are determined by fitting the inhibition curves using a four-parameter variable slope model in GraphPad Prism® 8.

ENPP-1, MDA-MB-231 cells = molecular target: T2, ENPP-1, MDA-MB-231 cells (Homo sapiens, UniProt P22413); experiment: cell-based; conditions: for inhibition at 20 µM: MDA-MB-231, read-out: % Inhibition (at 20 μM)
T2 sequence (P22413 1-925): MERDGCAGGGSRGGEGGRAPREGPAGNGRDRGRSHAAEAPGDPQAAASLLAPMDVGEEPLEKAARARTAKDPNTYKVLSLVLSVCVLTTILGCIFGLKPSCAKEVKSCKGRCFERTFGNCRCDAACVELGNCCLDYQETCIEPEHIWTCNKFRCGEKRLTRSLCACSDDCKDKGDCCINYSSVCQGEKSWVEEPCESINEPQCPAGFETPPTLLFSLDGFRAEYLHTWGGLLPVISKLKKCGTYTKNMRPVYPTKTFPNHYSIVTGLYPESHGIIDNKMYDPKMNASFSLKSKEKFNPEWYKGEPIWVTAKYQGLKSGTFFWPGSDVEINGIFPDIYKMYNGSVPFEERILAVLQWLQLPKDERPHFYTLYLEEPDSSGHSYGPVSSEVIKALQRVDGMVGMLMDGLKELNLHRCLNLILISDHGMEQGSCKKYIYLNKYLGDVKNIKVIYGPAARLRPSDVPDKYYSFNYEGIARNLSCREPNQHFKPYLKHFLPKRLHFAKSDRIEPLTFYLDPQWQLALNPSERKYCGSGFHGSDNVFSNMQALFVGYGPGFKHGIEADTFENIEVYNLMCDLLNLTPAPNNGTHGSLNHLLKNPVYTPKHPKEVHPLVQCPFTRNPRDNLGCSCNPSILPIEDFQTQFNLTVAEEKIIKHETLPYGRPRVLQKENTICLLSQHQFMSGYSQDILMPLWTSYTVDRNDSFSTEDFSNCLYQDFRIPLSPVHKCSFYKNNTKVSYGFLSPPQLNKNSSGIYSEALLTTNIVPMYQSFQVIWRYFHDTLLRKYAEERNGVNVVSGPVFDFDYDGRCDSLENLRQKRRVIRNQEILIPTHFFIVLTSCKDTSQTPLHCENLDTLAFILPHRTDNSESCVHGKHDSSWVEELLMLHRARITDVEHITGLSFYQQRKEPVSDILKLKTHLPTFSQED
Description: ENPP-1 were mainly expressed on the surface of cell membrane where it hydrolytes 2′3′-cGAMP to generate 5′-GMP and 5′-AMP. ENPP-1 also has the ability to hydrolyzes artificial phosphoric acid ester TMP-pNP to nucleotide-5′-monophosphate and p-nitrophcnol there, which is a chromogenic product.
8 point of different concentrations of each inhibitor were prepared with the final assay concentrations starting at 20 μM. 3× series dilution by DMEM medium without FBS was applied. Prior to adding inhibitors, 75000 cells per well were incubated at 37° C., 5% CO2 in DMEM for 24 hours. After removing the supernatant medium, 50 μL inhibitor solution was added into each well with cultured cells and incubate at 37° C., 5% CO2 for 60 minutes.
as §2

[3] = substrate TMP-pNP, 20 ng human soluble ENPP1, Tris buffer pH 9.5, read-out: TMP-pNP (IC50)

SMILES | IC50 (human soluble ENPP1 [1]) | IC50 (human soluble ENPP1 [2]) | IC50 (ENPP-1, MDA-MB-231 cells) | inhibition at 20 µM (ENPP-1, MDA-MB-231 cells) | IC50 (human soluble ENPP1 [1]; [3])
COc1ccc2c(ncc3ncn(Cc4ccc(S(N)(=O)=O)c(OC)c4)c32)n1 [Compound 64, 2-methoxy-4-((7-methoxy-1H-imidazo[4,5-c][1,8]naphthyridin-1-yl)methyl)benzenesulfonamide] | 2.8 nM | 8.9 nM | 4700 nM | 68% | –
COc1ccc2c(ncc3ncn(Cc4ccc(S(N)(=O)=O)c(OC(F)(F)F)c4)c32)n1 [Compound 66, 4-((7-methoxy-1H-imidazo[4,5-c][1,8]naphthyridin-1-yl)methyl)-2-(trifluoromethoxy)benzenesulfonamide] | 3 nM | 13 nM | 3400 nM | 71% | –
COc1ccc2c(ncc3ncn(Cc4ccc(S(N)(=O)=O)cc4C(F)(F)F)c32)n1 [Compound 67, 4-((7-methoxy-1H-imidazo[4,5-c][1,8]naphthyridin-1-yl)methyl)-3-(trifluoromethyl)benzenesulfonamide] | – | 8.6 nM | 1300 nM | 80% | 2.3 nM
COc1ccc2c(ncc3ncn(Cc4ccc(S(N)(=O)=O)cc4Br)c32)n1 [Compound 68, 3-bromo-4-((7-methoxy-1H-imidazo[4,5-c][1,8]naphthyridin-1-yl)methyl)benzenesulfonamide] | – | 1.7 nM | 610 nM | 86% | 0.49 nM
COc1ccc2c(ncc3ncn(Cc4ccc(S(N)(=O)=O)cc4C#N)c32)n1 [Compound 69, 3-cyano-4-((7-methoxy-1H-imidazo[4,5-c][1,8]naphthyridin-1-yl)methyl)benzenesulfonamide] | 0.67 nM | 2.1 nM | 510 nM | 79% | –
COc1ccc2c(ncc3nc(C4CCOCC4)n(Cc4ccc(S(N)(=O)=O)cn4)c32)n1 [Compound 75, 6-((7-methoxy-2-(tetrahydro-2H-pyran-4-yl)-1H-imidazo[4,5-c][1,8]naphthyridin-1-yl)methyl)pyridine-3-sulfonamide] | 0.24 nM | 0.68 nM | 310 nM | 81% | –
COc1ccc2c(ncc3nc(C)n(Cc4ccc(S(=O)(=O)NC(C)=O)c(F)c4)c32)n1 [Compound 76, N-((2-fluoro-4-((7-methoxy-2-methyl-1H-imidazo[4,5-c][1,8]naphthyridin-1-yl)methyl)phenyl)sulfonyl)acetamide] | – | 26 nM | 6900 nM | 51% | 13 nM
COc1ccc2c(ncc3nc(C)n(Cc4ccc(S(=O)(=O)NC(C)=O)cn4)c32)n1 [Compound 77, N-((6-((7-methoxy-2-methyl-1H-imidazo[4,5-c][1,8]naphthyridin-1-yl)methyl)pyridin-3-yl)sulfonyl)acetamide] | 8.6 nM | 15 nM | 4800 nM | 65% | –
COCc1nc2cnc3nc(OC)ccc3c2n1Cc1ccc(S(N)(=O)=O)c(F)c1 [Compound 79, 2-fluoro-4-((7-methoxy-2-(methoxymethyl)-1H-imidazo[4,5-c][1,8]naphthyridin-1-yl)methyl)benzenesulfonamide] | 2.1 nM | 9.2 nM | 1900 nM | 74% | –
COc1ccc2c(ncc3nc(CS(C)(=O)=O)n(Cc4ccc(S(N)(=O)=O)c(F)c4)c32)n1 [Compound 81, 2-fluoro-4-((7-methoxy-2-((methylsulfonyl)methyl)-1H-imidazo[4,5-c][1,8]naphthyridin-1-yl)methyl)benzenesulfonamide] | 6.9 nM | 23 nM | 4900 nM | 63% | –
COC(=O)Cc1nc2cnc3nc(OC)ccc3c2n1Cc1ccc(S(N)(=O)=O)c(F)c1 [Compound 83, methyl 2-(1-(3-fluoro-4-sulfamoylbenzyl)-7-methoxy-1H-imidazo[4,5-c][1,8]naphthyridin-2-yl)acetate] | 3.2 nM | 7.7 nM | 1200 nM | 83% | –
